{"source": "patent US7399756B2", "about": "“Organo-phosphorous compounds for activating gamma/delta T cells” (Bioagency AG, priority 2001, dated 2008)", "test_system": "V gamma 9+ T-cells (gamma/delta T-cells)", "assay": "Activation of gamma/delta T-cells: CD25 expression on V gamma 9+ T-cells of peripheral blood lymphocytes, flow cytometry", "assay_type": "cell-based, human", "conditions": "peripheral blood lymphocytes of healthy donors, 72 hours incubation with IL-2, CD25 activation marker; IPP positive control 10 μM", "protocol": "Lymphocytes were obtained from the peripheral blood of healthy donors by Ficoll density gradient centrifugation. For each test, 2×10^5 of the cells so obtained were seeded in a volume of 0.2 ml of RPMI-1640 medium (Life Technologies) that was enriched with 25 mM HEPES, 2 mM L-glutamine, 0.025 mg/ml of gentamicin, 100 U/ml of human interleukin-2 (IL-2) (all from Life Technologies) and 10% human AB serum (Bavarian Red Cross). The test fractions were added in various dilutions, and isopentenyl diphosphate (IPP) from Sigma was used in a final concentration of 10 μM as a positive control. Incubation was effected in the incubator with 5% CO2 at 37° C. After 72 hours the cells were harvested and analysed in a flow cytometer. In so doing, the expression of the CD25 activation marker on the surface of V gamma 9^+ T-cells was measured with the aid of the monoclonal antibodies CD25-PE (B1.49.9), V gamma 9-FITC (lmmu360) and CD3-PC5 (UCHT1) supplied by Beckman-Coulter.\nLymphocytes were obtained from the peripheral blood of healthy donors by Ficoll density gradient centrifugation. […] After 72 hours the cells were harvested and analysed in a flow cytometer. In so doing, the expression of the CD25 activation marker on the surface of V gamma 9^+ T-cells was measured with the aid of the monoclonal antibodies CD25-PE (B1.49.9), V gamma 9-FITC (Immu360) and CD3-PC5 (UCHT1) supplied by Beckman-Coulter.", "data": [{"smiles": "CC(=CCCP(=O)([O-])CP(=O)([O-])[O-])CO.[Na+].[Na+].[Na+]", "note": "[compound 19]", "values": [{"measurement": "activity relative to IPP (times more active than IPP)", "result": "about 500 times"}]}, {"smiles": "CC(=CCCP(=O)([O-])OP(=O)([O-])[O-])CO.[Na+].[Na+].[Na+]", "note": "[compound 15]", "values": [{"measurement": "activity relative to IPP (times more active than IPP)", "result": "about 500 times"}]}]}
